Source: patent US20110039808A1, “Multitarget Compounds Active at a PPAR and Cannabinoid Receptor” (priority 2007, published 2011)

Experiments:
PPAR-γ receptor [1] = biological target: T1, PPAR-γ receptor (Homo sapiens, UniProt P37231); test: biochemical; format: biochemical
T1 sequence (P37231 1-505): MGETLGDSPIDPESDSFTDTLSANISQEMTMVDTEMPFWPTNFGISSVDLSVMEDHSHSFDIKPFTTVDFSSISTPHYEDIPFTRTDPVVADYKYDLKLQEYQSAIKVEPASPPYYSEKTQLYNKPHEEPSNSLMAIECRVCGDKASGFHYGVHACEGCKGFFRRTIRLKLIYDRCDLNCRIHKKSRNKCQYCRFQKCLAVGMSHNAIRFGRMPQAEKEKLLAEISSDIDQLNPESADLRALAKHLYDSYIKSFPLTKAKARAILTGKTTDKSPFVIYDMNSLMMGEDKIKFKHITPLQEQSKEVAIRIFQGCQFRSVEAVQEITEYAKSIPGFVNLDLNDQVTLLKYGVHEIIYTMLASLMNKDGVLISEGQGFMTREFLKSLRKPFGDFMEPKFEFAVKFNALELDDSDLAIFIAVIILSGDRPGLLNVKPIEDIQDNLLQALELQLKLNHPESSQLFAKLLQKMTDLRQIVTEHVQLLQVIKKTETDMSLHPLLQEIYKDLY

PPAR-γ receptor [2] = biological target: T2, PPAR-γ receptor (Homo sapiens, UniProt P37231); test: cell-based
T2 sequence (P37231 238-505 limits assumed): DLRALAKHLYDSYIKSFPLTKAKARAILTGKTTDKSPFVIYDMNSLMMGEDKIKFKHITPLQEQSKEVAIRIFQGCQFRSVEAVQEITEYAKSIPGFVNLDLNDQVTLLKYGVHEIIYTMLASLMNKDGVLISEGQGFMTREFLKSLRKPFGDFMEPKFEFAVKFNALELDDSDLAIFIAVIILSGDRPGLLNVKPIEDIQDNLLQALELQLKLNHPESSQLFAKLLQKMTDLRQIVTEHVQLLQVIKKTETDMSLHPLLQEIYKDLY
Source text: FIG. 14: Activity of a number of compounds of the invention at the PPAR-γ receptor in cell based system (GeneBlazer) versus rosglitazone control.

SMILES | EC50 (PPAR-γ receptor [1]) [nM] | EC50 (PPAR-γ receptor [2]) [nM] | activity in initial dose-response curves (PPAR-γ receptor [1]; initial dose-response curves, statement follows the PPAR-γ cell free table)
Cc1c(C(=O)c2cccc3ccccc23)c2ccccc2n1CCNc1ccc(O)c(C(=O)O)c1 [DWIN2 (X), 2-Hydroxy-5-{2-[2-methyl-3-(naphthalene-1-carbonyl)-indol-1-yl]-ethylamino}-benzoic acid] | 358 | 1050 | 
Cc1c(C(=O)c2cccc3ccccc23)c2ccccc2n1CCNc1ccc(C(=O)O)c(O)c1 [DWIN1 (IX), 2-Hydroxy-4-{2-[2-methyl-3-(naphthalene-1-carbonyl)-indol-yl]-ethylamino}-benzoic acid] | 493 | 800 | 
Cc1c(CCNc2ccc(C(=O)O)c(O)c2)c2ccccc2n1C(=O)c1cccc(Cl)c1Cl [DWIN8 (XII), 4-{2-[1-(2,3-Dichloro-benzoyl)-2-methyl-1H-indol-3-yl]-ethylamino}-2-hydroxy-benzoic acid] |  |  | not active
